Numbered stars: 1 amine (or outer) side, 2 acyl side, 3 side chain; on linkers, the order of the positions; unused ones are H or OH. Bridge positions count the residues as written; N and C are the ends. Square brackets hold non-standard residues; d marks the D form. Peptide text beside a SMILES is read from it. Trp(βS-Me,7-OMe) = COc1cccc2c([C@H](C)[C@H](N)C(=O)O)c[nH]c12; cBu(1-CO,cis-3-CH2NH) = O=C([C@H]1C[C@@H](CN[*:1])C1)[*:2]; Phe(4-CH2COOH) = N[C@@H](Cc1ccc(CC(=O)O)cc1)C(=O)O; Trp(7-CN) = N#Cc1cccc2c(C[C@H](N)C(=O)O)c[nH]c12; Trp(7-Cl) = N[C@@H](Cc1c[nH]c2c(Cl)cccc12)C(=O)O; Phe(4-CONH2) = NC(=O)c1ccc(C[C@H](N)C(=O)O)cc1; Phe(4-COOH) = N[C@@H](Cc1ccc(C(=O)O)cc1)C(=O)O; X30 = O=C([C@@H](N[*:1])[C@H](O)c1ccncc1)[*:2]; 4Pal(3S-Me) = C[C@@H](c1ccncc1)[C@H](N)C(=O)O; Trp(7-aza) = N[C@@H](Cc1c[nH]c2ncccc12)C(=O)O; Pip(5R-OH) = O=C(O)[C@@H]1CC[C@@H](O)CN1; X1 = O=C([C@@H]1CC[C@H](N[*:1])C1)[*:2]; Pip(4-aza) = O=C(O)[C@@H]1CNCCN1; 4Pal = N[C@@H](Cc1ccncc1)C(=O)O; NMeE = CN[C@@H](CCC(=O)O)C(=O)O; dHyp = O=C(O)[C@H]1C[C@H](O)CN1; Cit = NC(=O)NCCC[C@H](N)C(=O)O; X7 = CC[C@@H](C(=O)[*:1])[*:2]; Ahp(2) = CCCCC[C@H](N)C(=O)O; Pip = O=C(O)[C@@H]1CCCCN1; αMeS = C[C@](N)(CO)C(=O)O; Nle = CCCC[C@H](N)C(=O)O; Sar = CNCC(=O)O
How the values were obtained:
[1] = target: T1, human TNFR1 extracellular domain (ECD) protein (Homo sapiens, UniProt P19438); experiment: SPR binding affinity to captured human TNFR1 ECD
T1 construct: HRV 3C protease cleavage site (C); 6His (C, cleaved yes); made in house; host or cells: Sf21 insect cells (baculovirus), secreted
T1 sequence (P19438 30-211): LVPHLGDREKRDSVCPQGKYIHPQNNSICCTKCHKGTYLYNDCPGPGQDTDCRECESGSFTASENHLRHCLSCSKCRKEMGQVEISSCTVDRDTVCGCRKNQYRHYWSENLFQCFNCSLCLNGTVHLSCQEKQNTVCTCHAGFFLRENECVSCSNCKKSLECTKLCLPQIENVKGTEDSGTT
Method in brief: (§1)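 Biotinylated human TNFR1 or TNFR2 ECD (C-terminal Avi-tag, Sf21-expressed) captured on a regenerable streptavidin chip; peptide analytes flowed in 10 mM HEPES pH 7.4, 150 mM NaCl, 3 mM EDTA, 0.05% P20, 2% DMSO. kon and koff measured; affinity calculated from the rate constants.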

human TNFR2 ECD protein = target: T2, human TNFR2 ECD protein (Homo sapiens, UniProt P20333); experiment: SPR off-target binding (selectivity) to human TNFR2 ECD
T2 construct: HRV 3C protease cleavage site (C); 6His (C, cleaved yes); made in house; host or cells: Sf21 insect cells (baculovirus), secreted
T2 sequence (P20333 23-257): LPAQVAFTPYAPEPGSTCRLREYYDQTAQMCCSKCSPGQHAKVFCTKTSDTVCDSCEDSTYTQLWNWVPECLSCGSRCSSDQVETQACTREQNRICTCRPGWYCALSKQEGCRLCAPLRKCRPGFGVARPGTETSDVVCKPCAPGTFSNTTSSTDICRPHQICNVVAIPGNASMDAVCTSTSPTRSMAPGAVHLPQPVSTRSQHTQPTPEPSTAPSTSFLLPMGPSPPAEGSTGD
Method in brief: as §1

[2] = target: T3, human soluble TNFR1 (sTNFR1) (Homo sapiens, UniProt P19438); experiment: Human sTNFR1-peptide displacement assay (LanthaScreen Eu TR-FRET binding assay)
T3 construct: made in house; host or cells: Sf21 (baculovirus)
T3 sequence (P19438 with tags, fused parts or gaps): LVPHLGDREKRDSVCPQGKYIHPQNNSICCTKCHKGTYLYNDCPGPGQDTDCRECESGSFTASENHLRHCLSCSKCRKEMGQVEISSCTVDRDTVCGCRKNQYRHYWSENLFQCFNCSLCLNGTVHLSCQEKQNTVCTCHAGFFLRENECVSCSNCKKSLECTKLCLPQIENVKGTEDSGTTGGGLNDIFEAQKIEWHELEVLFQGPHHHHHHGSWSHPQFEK
Method in brief: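 Readout is the 665/615 nm TR-FRET ratio (Eu anti-His donor, streptavidin-Alexa647 acceptor), normalized to DMSO and saturating displacer, fit by Morrison-based five-parameter logistic for Kd^app. His-tagged sTNFR1 (1-211) prebound to 100 nM biotinylated peptide SEQ ID NO.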

CCCCC[C@@H]1NC(=O)[C@@H]2CC[C@@H](C2)NC(=O)[C@H]([C@@H](C)c2c[nH]c3c(OC)cccc23)NC(=O)CN(C)C(=O)[C@H](Cc2ccc(C(N)=O)cc2)NC(=O)[C@H](Cc2ccc(C(N)=O)cc2)NC(=O)[C@](C)(CO)NC(=O)[C@H](Cc2c[nH]c3c(C#N)cccc23)NC(=O)[C@H](Cc2ccc(C(=O)O)cc2)NC(=O)[C@H](CC(N)=O)NC(=O)[C@H]2C[C@H](O)CN2C(=O)[C@H](Cc2c[nH]c3ccccc23)NC(=O)[C@H](CO)NC(=O)[C@H]([C@H](O)c2ccncc2)NC1=O [SEQ ID NO. 16] (cyclo([Ahp(2)][X30]SW[dHyp]N[Phe(4-COOH)][Trp(7-CN)][αMeS][Phe(4-CONH2)][Phe(4-CONH2)][Sar][Trp(βS-Me,7-OMe)][X1]))
Kd [1]: 0.09 nM | Kd (human TNFR2 ECD protein): > 1000 nM | Kd [2]: 0.11 nM

CCCC[C@@H]1NC(=O)CSC[C@@H](C(N)=O)NC(=O)[C@H]([C@@H](C)c2c[nH]c3c(OC)cccc23)NC(=O)CN(C)C(=O)[C@H](Cc2ccc(O)cc2)NC(=O)[C@H](Cc2ccc(C(=O)O)cc2)NC(=O)[C@](C)(CO)NC(=O)[C@H](Cc2c[nH]c3c(Cl)cccc23)NC(=O)[C@H](Cc2ccc(CC(=O)O)cc2)NC(=O)[C@H](CC(N)=O)NC(=O)[C@H](CCC(=O)O)N(C)C(=O)[C@H](Cc2c[nH]c3ccccc23)NC(=O)[C@@H]2CCCCN2C(=O)[C@H](Cc2ccncc2)NC1=O [SEQ ID NO. 212] ({CH2CO}-[Nle][4Pal][Pip]W[NMeE]N[Phe(4-CH2COOH)][Trp(7-Cl)][αMeS][Phe(4-COOH)]Y[Sar][Trp(βS-Me,7-OMe)]C-NH2; thioether N-14)
Kd [1]: 0.5 nM | Kd (human TNFR2 ECD protein): > 1000 nM | IC50 [2]: 0.9 nM | Kd [2]: 0.73 nM

CCCC[C@@H]1NC(=O)[C@H](CC)SC[C@@H](C(N)=O)NC(=O)[C@H]([C@@H](C)c2c[nH]c3c(OC)cccc23)NC(=O)CN(C)C(=O)[C@H](Cc2ccc(O)cc2)NC(=O)[C@H](Cc2ccc(C(N)=O)cc2)NC(=O)[C@](C)(CO)NC(=O)[C@H](Cc2c[nH]c3c(Cl)cccc23)NC(=O)[C@H](Cc2ccc(C(=O)O)cc2)NC(=O)[C@H](CC(N)=O)NC(=O)[C@H](CCC(=O)O)N(C)C(=O)[C@H](Cc2c[nH]c3ncccc23)NC(=O)[C@@H]2CC[C@@H](O)CN2C(=O)[C@H](Cc2ccncc2)NC1=O [SEQ ID NO. 168] ([Nle][4Pal][Pip(5R-OH)][Trp(7-aza)][NMeE]N[Phe(4-COOH)][Trp(7-Cl)][αMeS][Phe(4-CONH2)]Y[Sar][Trp(βS-Me,7-OMe)]C-NH2; linker N-14 via X7)
Kd [1]: 0.37 nM | Kd (human TNFR2 ECD protein): > 1000 nM | IC50 [2]: 0.3 nM

CCCC[C@@H]1NC(=O)[C@H]2C[C@@H](CNC(=O)[C@H]([C@@H](C)c3c[nH]c4c(OC)cccc34)NC(=O)CN(C)C(=O)[C@H](Cc3ccc(O)cc3)NC(=O)[C@H](Cc3ccc(C(=O)O)cc3)NC(=O)[C@](C)(CO)NC(=O)[C@H](Cc3c[nH]c4c(Cl)cccc34)NC(=O)[C@H](Cc3ccncc3)NC(=O)[C@H](CC(N)=O)NC(=O)[C@H](CCC(=O)O)N(C)C(=O)[C@H](Cc3c[nH]c4ccccc34)NC(=O)[C@@H]3CNCCN3C(=O)[C@H](Cc3ccncc3)NC1=O)C2 [SEQ ID NO. 268] (cyclo([4Pal][Trp(7-Cl)][αMeS][Phe(4-COOH)]Y[Sar][Trp(βS-Me,7-OMe)][cBu(1-CO,cis-3-CH2NH)][Nle][4Pal][Pip(4-aza)]W[NMeE]N))
Kd [1]: 0.27 nM | Kd (human TNFR2 ECD protein): > 1000 nM | IC50 [2]: 0.77 nM | Kd [2]: 0.45 nM

CCCCC[C@@H]1NC(=O)[C@@H]2CC[C@@H](C2)NC(=O)[C@H]([C@@H](C)c2c[nH]c3c(OC)cccc23)NC(=O)CN(C)C(=O)[C@H](Cc2ccc(C(N)=O)cc2)NC(=O)[C@H](Cc2ccc(C(N)=O)cc2)NC(=O)[C@](C)(CO)NC(=O)[C@H](Cc2c[nH]c3c(C#N)cccc23)NC(=O)[C@H](Cc2ccc(C(=O)O)cc2)NC(=O)[C@H](CC(N)=O)NC(=O)[C@H]2C[C@H](O)CN2C(=O)[C@H](Cc2c[nH]c3ccccc23)NC(=O)[C@H](CCCNC(N)=O)NC(=O)[C@H]([C@@H](C)c2ccncc2)NC1=O [SEQ ID NO. 110] (cyclo([Ahp(2)][4Pal(3S-Me)][Cit]W[dHyp]N[Phe(4-COOH)][Trp(7-CN)][αMeS][Phe(4-CONH2)][Phe(4-CONH2)][Sar][Trp(βS-Me,7-OMe)][X1]))
Kd [1]: 0.14 nM | Kd [2]: 0.14 nM

Source: patent US20240287138A1, “CYCLIC PEPTIDES FOR INHIBITING TNF RECEPTOR 1 ACTIVITY” (Merck Sharp & Dohme LLC, priority 2023, published 2024)
